One assay deals with Mcl-1, Bcl-xL, Bcl-2. The assay is described as follows: BCL-2 family selectivity profile. Type of assay: binding. An excerpt:
The binding spectrum of stapled BIM BH3 peptides were tuned for BCL-2 family selectivity. […] ABT-199 is venetoclax, and † represents values reported in the literature.

In another assay the target is Bcl-2 (Homo sapiens, UniProt P10415). The assay is described as follows: Ki determination for Bcl-2 (BCL-2 family binding spectrum). The procedure, abridged: (§1)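 Competitive fluorescence polarization: compounds (1 nM–1 mM) with 25 nM fluoresceinated peptidomimetic macrocycle and 50 nM protein in 140 mM NaCl, 50 mM Tris-HCl pH 7.4, 30 min at room temperature. Constants from nonlinear regression.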
Bcl-2, sequence (P10415 whole entry, species assumed): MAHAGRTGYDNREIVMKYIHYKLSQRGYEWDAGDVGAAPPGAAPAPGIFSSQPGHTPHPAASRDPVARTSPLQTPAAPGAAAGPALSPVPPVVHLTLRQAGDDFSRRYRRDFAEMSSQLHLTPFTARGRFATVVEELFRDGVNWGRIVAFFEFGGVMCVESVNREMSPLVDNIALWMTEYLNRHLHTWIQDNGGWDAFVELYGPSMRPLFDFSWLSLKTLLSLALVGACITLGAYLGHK

Another assay deals with Bcl-xL (Homo sapiens, UniProt Q07817). The assay is described as follows: Ki determination for Bcl-xL (BCL-2 family binding spectrum). In short, it runs like this: as §1
Bcl-xL, sequence (Q07817 whole entry, species assumed): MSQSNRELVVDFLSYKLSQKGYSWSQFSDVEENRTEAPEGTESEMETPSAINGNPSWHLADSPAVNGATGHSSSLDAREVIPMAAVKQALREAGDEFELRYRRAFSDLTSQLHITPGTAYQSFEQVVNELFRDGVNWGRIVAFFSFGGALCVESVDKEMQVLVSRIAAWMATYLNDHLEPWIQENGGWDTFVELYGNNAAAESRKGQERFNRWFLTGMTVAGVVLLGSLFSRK
The target of the next assay is Mcl-1 (Homo sapiens, UniProt Q07820). Description: Ki determination for Mcl-1 (BCL-2 family binding spectrum). In short, it runs like this:
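Binding to Mcl-1 was measured as displacement of a fluorescein-labelled macrocyclic peptidomimetic, read by fluorescence polarization. Constants were fitted by nonlinear regression.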

Where two headings read alike, the source gives them in different places. Positions of bridges follow the written chain, without caps; N, C: chain ends. Non-standard residues stand in square brackets, D forms with d. Residues, ends and D or L forms follow the SMILES beside them. R8 = C=CCCCCCC[C@@](C)(N)C(=O)O; S5 = C=CCCC[C@](C)(N)C(=O)O

Mcl-1, sequence (Q07820 whole entry, species assumed): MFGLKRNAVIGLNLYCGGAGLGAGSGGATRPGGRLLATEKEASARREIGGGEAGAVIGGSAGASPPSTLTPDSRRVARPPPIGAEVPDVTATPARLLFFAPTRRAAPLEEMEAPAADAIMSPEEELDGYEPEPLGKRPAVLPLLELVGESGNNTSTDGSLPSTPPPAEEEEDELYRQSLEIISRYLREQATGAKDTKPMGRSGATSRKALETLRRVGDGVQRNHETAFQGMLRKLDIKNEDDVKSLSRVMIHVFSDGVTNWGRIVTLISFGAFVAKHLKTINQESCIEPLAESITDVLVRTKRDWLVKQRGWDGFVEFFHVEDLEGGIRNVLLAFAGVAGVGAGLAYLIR

Take `CN(C)CC[C@H](CSc1ccccc1)Nc1ccc(S(=O)(=O)NC(=O)c2ccc(N3CCN(Cc4ccccc4-c4ccc(Cl)cc4)CC3)cc2)cc1[N+](=O)[O-]` [ABT-737, reference compound]: the Profile result with Mcl-1, Bcl-xL, Bcl-2 (TABLE 8) is given as “Bcl-xL/Bcl-2 selective”.

On to `CC[C@H](C)[C@H](NC(C)=O)C(=O)N[C@@H](Cc1c[nH]c2ccccc12)C(=O)N[C@H](C(=O)N[C@@H](C)C(=O)N[C@@H](CCC(N)=O)C(=O)N[C@@H](C)C(=O)N[C@@H](CC(C)C)C(=O)N[C@@H](CCCNC(=N)N)C(=O)N[C@]1(C)CCCCCCC=CCCC[C@@](C)(C(=O)N[C@@H](Cc2ccc(O)cc2)C(=O)N[C@@H](Cc2ccc(O)cc2)C(=O)N[C@@H](C)C(N)=O)NC(=O)[C@H](CC(N)=O)NC(=O)[C@H](Cc2ccccc2)NC(=O)[C@H](CCC(=O)O)NC(=O)[C@H](CC(=O)O)NC(=O)CNC(=O)[C@H]([C@@H](C)CC)NC1=O)[C@@H](C)CC` [Peptide #1] (Ac-IWIAQALR[R8]IGDEFN[S5]YYA-NH2; staple 9-16), for which the Ki at Bcl-2 (TABLE 6, read-out: Bcl-2 Ki) stood at 3.2 nM; on Bcl-xL (TABLE 6, read-out: Bcl-xL Ki), 1.4 nM; on Mcl-1 (TABLE 6, read-out: Mcl-1 Ki) it was 1.8 nM. Besides, the Profile entry in the assay on Mcl-1, Bcl-xL, Bcl-2 (TABLE 6) is recorded as “Pan-selective”.

On to `CC[C@H](C)[C@H](NC(C)=O)C(=O)N[C@@H](Cc1c[nH]c2ccccc12)C(=O)N[C@H](C(=O)N[C@@H](C)C(=O)N[C@@H](CCC(N)=O)C(=O)N[C@@H](C)C(=O)N[C@@H](CC(C)C)C(=O)N[C@@H](CCCNC(=N)N)C(=O)N[C@]1(C)CCCCCCC=CCCC[C@@](C)(C(=O)N[C@@H](Cc2ccc(O)cc2)C(=O)N[C@@H](Cc2ccc(O)cc2)C(=O)N[C@@H](C)C(=O)N[C@@H](CCCNC(=N)N)C(=O)N[C@@H](CCCNC(=N)N)C(N)=O)NC(=O)[C@H](CC(N)=O)NC(=O)[C@H](Cc2ccccc2)NC(=O)[C@H](CCC(=O)O)NC(=O)[C@H](CC(=O)O)NC(=O)CNC(=O)[C@H]([C@@H](C)CC)NC1=O)[C@@H](C)CC` [Peptide #15] (Ac-IWIAQALR[R8]IGDEFN[S5]YYARR-NH2; staple 9-16), for which the Ki on Mcl-1 (TABLE 8, read-out: Mcl-1 Ki) is 10.6 nM. In addition, in the assay on Mcl-1, Bcl-xL, Bcl-2 (TABLE 8), the Profile result is “Pan-selective”.

With `CC[C@H](C)[C@H](NC(C)=O)C(=O)N[C@@H](Cc1c[nH]c2ccccc12)C(=O)N[C@H](C(=O)N[C@@H](C)C(=O)N[C@@H](CCC(N)=O)C(=O)N[C@@H](C)C(=O)N[C@@H](CC(C)C)C(=O)N[C@@H](CCCNC(=N)N)C(=O)N[C@]1(C)CCCCCCC=CCCC[C@@](C)(C(=O)N[C@@H](Cc2ccc(O)cc2)C(=O)N[C@@H](Cc2ccc(O)cc2)C(=O)N[C@@H](C)C(N)=O)NC(=O)[C@H](CC(N)=O)NC(=O)[C@H](C)NC(=O)[C@H](CCC(N)=O)NC(=O)[C@H](CC(=O)O)NC(=O)CNC(=O)[C@H]([C@@H](C)CC)NC1=O)[C@@H](C)CC` [compound 8] (Ac-IWIAQALR[R8]IGDQAN[S5]YYA-NH2; staple 9-16), the Ki on Mcl-1 (TABLE 6, read-out: Mcl-1 Ki) was found to be 1.4 nM. For the same compound, the Profile entry with Mcl-1, Bcl-xL, Bcl-2 (TABLE 6) is recorded as “Mcl-1 selective”.

On to `CC[C@H](C)[C@H](NC(C)=O)C(=O)N[C@@H](Cc1c[nH]c2ccccc12)C(=O)N[C@H](C(=O)N[C@@H](C)C(=O)N[C@@H](CCC(N)=O)C(=O)N[C@@H](C)C(=O)N[C@@H](CC(C)C)C(=O)N[C@@H](CCCNC(=N)N)C(=O)N[C@]1(C)CCCCCCC=CCCC[C@@](C)(C(=O)N[C@@H](Cc2ccc(O)cc2)C(=O)N[C@@H](Cc2ccc(O)cc2)C(=O)N[C@@H](C)C(N)=O)NC(=O)[C@H](CC(N)=O)NC(=O)[C@H](Cc2ccccc2)NC(=O)[C@H](CCC(N)=O)NC(=O)[C@H](CC(=O)O)NC(=O)[C@H](C)NC(=O)[C@H]([C@@H](C)CC)NC1=O)[C@@H](C)CC` [compound 9] (Ac-IWIAQALR[R8]IADQFN[S5]YYA-NH2; staple 9-16), for which the Ki was 25.6 nM at Bcl-2 (TABLE 6, read-out: Bcl-2 Ki) and 7.7 nM at Bcl-xL (TABLE 6, read-out: Bcl-xL Ki). Moreover, the Profile entry in the assay on Mcl-1, Bcl-xL, Bcl-2 (TABLE 6) is on record as “Bcl-xL/Bcl-2 selective”.

For the compound `CC[C@H](C)[C@H](NC(C)=O)C(=O)N[C@@H](Cc1c[nH]c2ccccc12)C(=O)N[C@H](C(=O)N[C@@H](C)C(=O)N[C@@H](CCC(N)=O)C(=O)N[C@@H](C)C(=O)N[C@@H](CC(C)C)C(=O)N[C@@H](C)C(=O)N[C@]1(C)CCCCCCC=CCCC[C@@](C)(C(=O)N[C@@H](Cc2ccc(O)cc2)C(=O)N[C@@H](Cc2ccc(O)cc2)C(=O)N[C@@H](C)C(N)=O)NC(=O)[C@H](CC(N)=O)NC(=O)[C@H](Cc2ccccc2)NC(=O)[C@H](C)NC(=O)[C@H](CC(=O)O)NC(=O)CNC(=O)[C@H]([C@@H](C)CC)NC1=O)[C@@H](C)CC` [compound 11] (Ac-IWIAQALA[R8]IGDAFN[S5]YYA-NH2; staple 9-16), the Ki was found to be 386 nM at Bcl-xL (TABLE 6, read-out: Bcl-xL Ki) and 73.8 nM on Mcl-1 (TABLE 6, read-out: Mcl-1 Ki). In the assay with Mcl-1, Bcl-xL, Bcl-2 (TABLE 6), the Profile entry is recorded as “negative control”.

As to `CC[C@H](C)[C@H](NC(C)=O)C(=O)N[C@@H](Cc1c[nH]c2ccccc12)C(=O)N[C@H](C(=O)N[C@@H](C)C(=O)N[C@@H](CCC(N)=O)C(=O)N[C@@H](C)C(=O)N[C@@H](CC(C)C)C(=O)N[C@@H](CCCNC(=N)N)C(=O)N[C@]1(C)CCCCCCC=CCCC[C@@](C)(C(=O)N[C@@H](Cc2ccc(O)cc2)C(=O)N[C@@H](Cc2ccc(O)cc2)C(=O)N[C@@H](C)C(N)=O)NC(=O)[C@H](CC(N)=O)NC(=O)[C@H](Cc2ccccc2)NC(=O)[C@H](C)NC(=O)[C@H](CC(N)=O)NC(=O)CNC(=O)[C@H]([C@@H](C)CC)NC1=O)[C@@H](C)CC` [compound 12] (Ac-IWIAQALR[R8]IGNAFN[S5]YYA-NH2; staple 9-16), in the assay with Mcl-1, Bcl-xL, Bcl-2 (TABLE 6), the Profile result is “negative control”.

Consider `CC[C@H](C)[C@H](NC(C)=O)C(=O)N[C@@H](Cc1c[nH]c2ccccc12)C(=O)N[C@H](C(=O)N[C@@H](C)C(=O)N[C@@H](CCC(N)=O)C(=O)N[C@@H](C)C(=O)N[C@@H](C)C(=O)N[C@@H](CCCNC(=N)N)C(=O)N[C@]1(C)CCCCCCC=CCCC[C@@](C)(C(=O)N[C@@H](Cc2ccc(O)cc2)C(=O)N[C@@H](Cc2ccc(O)cc2)C(=O)N[C@@H](C)C(N)=O)NC(=O)[C@H](CC(N)=O)NC(=O)[C@H](Cc2ccccc2)NC(=O)[C@H](C)NC(=O)[C@H](CC(=O)O)NC(=O)CNC(=O)[C@H]([C@@H](C)CC)NC1=O)[C@@H](C)CC` [compound 13] (Ac-IWIAQAAR[R8]IGDAFN[S5]YYA-NH2; staple 9-16), for which, in the assay with Mcl-1, Bcl-xL, Bcl-2 (TABLE 6), the Profile result is reported as “negative control”.

Consider `CC[C@H](C)[C@H](NC(C)=O)C(=O)N[C@@H](Cc1c[nH]c2ccccc12)C(=O)N[C@H](C(=O)N[C@@H](C)C(=O)N[C@@H](CCC(N)=O)C(=O)N[C@@H](C)C(=O)N[C@@H](CC(C)C)C(=O)N[C@@H](CCCNC(N)=O)C(=O)N[C@]1(C)CCCCCCC=CCCC[C@@](C)(C(=O)N[C@@H](Cc2ccc(O)cc2)C(=O)N[C@@H](Cc2ccc(O)cc2)C(=O)N[C@@H](C)C(N)=O)NC(=O)[C@H](CC(N)=O)NC(=O)[C@H](Cc2ccccc2)NC(=O)[C@H](C)NC(=O)[C@H](CC(N)=O)NC(=O)CNC(=O)[C@H]([C@@H](C)CC)NC1=O)[C@@H](C)CC` [compound 1772], for which the Ki on Bcl-2 (read-out: Ki BCL-2), at Bcl-xL (read-out: Ki BCL-XL) and on Mcl-1 (read-out: Ki MCL-1) was more than 1000 nM in each case.
